Test results reported in patent US20230263817A1, “HIGH DOSE NICOTINAMIDE ADENINE DINUCLEOTIDE (NAD) PRECURSOR REGIMENS FOR REDUCTION OF INFLAMMATION IN HUMAN PATIENTS WITH PREEXISTING INFLAMMATION” (University of Washington, priority 2021, published 2023).

What was measured:
[1] = system: NLRP3 and pro-inflammatory cytokine (IL1β, IL6, IL18, TNFα) mRNA in healthy PBMCs; assay: RT-qPCR of NLRP3 and pro-inflammatory cytokine mRNA in healthy PBMCs treated in vitro; format: cell-based, human; conditions: 4-hour MitoDAMP with 0.5 mM MitoTempo relative to MitoDAMP alone
Description: (§1) PBMC and Monocyte Culture. Freshly isolated PBMCs or Monocytes from healthy or HF subjects were resuspended with RPMI medium plus 10% heat inactivated FBS. PBMCs (10^6 cells/well) were seeded in Seahorse 24-well plates and incubated at 37° C. in CO2 incubator with various proinflammatory triggers (Vehicle, MitoDAMP, LPS) and compounds (NR, MCC 950, MitoTempo, or LMT-28). After 4 hours incubation, the plate was centrifuged at 40 g for 10 minutes at room temperature without application of the brake to help cells attach to the bottom of the plate. The cells were washed twice and then brought up to 500 μL using Seahorse base medium (Agilent Technologies, supplemented with 1 mM pyruvate, 2 mM glutamine, and 10 mM glucose, pH 7.4).
IL6 ELISA. Isolated PBMCs (4×10^6 cells per sample) from healthy or HF participants were resuspended in RPMI medium containing 10% heat-inactivated FBS and treated with various proinflammatory triggers (Vehicle, MitoDAMP, LPS) and compounds (NR, MCC 950, MitoTempo, or LMT-28) to final PBMC concentrations of 10×10^6 cells per mL. See below for detailed descriptions of the reagents. The samples were incubated in Eppendorf tubes at 37° C. in a 5% CO2 incubator with caps open for times designated in the brief description of drawings. The cultured PBMC samples were centrifuged at 8,000 RPM at room temperature. The supernatant was used for ELISA per the manufacture protocol using R&D Systems human IL6 kit (Cat #DY206-05). The cell pellets were stored in −80° C.
RNA Isolation and Quantitative PCR analysis. Total RNA was isolated from frozen PBMC pellets using Trizol (Invitrogen) per the manufacturer's instructions, and cDNA was synthesized using iScript™ Reverse Transcription Supermix (Bio-rad) per the manufacturer's instructions. Real-time PCR was performed in the Corbett rotor gene 6000 real-time PCR machine using iQ™ SYBR® Green Supermix (Bio-rad) and expression levels of the indicated genes were calculated using the ΔΔCt method.

[2] = system: healthy PBMCs; assay: Seahorse Mito Stress Test (OCR) of healthy PBMCs after 4-hour in vitro treatment; format: cell-based, human; conditions: for PBMC maximal OCR: 4-hour increasing concentrations of recombinant human IL1B or IL18
Description: (§2) PBMC and Monocyte isolation. 30-60 ml of fasting blood was collected into EDTA-containing Vacutainers (BD Mfr #364606). Blood then was diluted (1:1) with RPMI medium (Corning; Cat #17-105-CV) and applied to Histopaque gradient medium (Sigma-Aldrich; Cat #10771) using SepMate-50 (STEMCELL Technologies), and centrifuged at 1200 g for 10 minutes. Top layer contained the enriched peripheral blood mononuclear cells (PBMCs) which were collected and followed by centrifugation at 300 g for 10 minutes. The pellet was resuspended with ACK lysis buffer (Gibco; Cat. A1049201) and incubated at room temperature for 5 minutes to remove residual red blood cells. Next, the enriched PBMCs were washed twice with RPMI medium. All PBMC samples were subjected to the baseline Seahorse Mito Stress Test. When available, the remaining cells were used for cytokine mRNA quantitative PCR and in vitro assays. For monocyte isolation, a magnetic bead-based negative-selection monocyte isolation kit (Miltenyi Biotec, 130-096-537) was used per the manufacturer's instructions. Briefly, antibody-conjugated magnetic bead solution was added to isolated PBMCs resuspended in RPMI containing 0.5% BSA and incubated for 20 minutes at 4° C., followed by magnetic column binding and elution. The procedure was repeated once to improve the purity of monocytes. The monocytes were washed once with RPMI prior to subsequent experiments.
Seahorse Mito Stress Test. Oxygen consumption rate (OCR) of freshly isolated PBMCs was assessed using a Seahorse XFe24 analyzer (Agilent Technologies). Briefly, purified PBMCs were resuspended in Seahorse base medium (Agilent Technologies, supplemented with 1 mM pyruvate, 2 mM glutamine, and 10 mM glucose, pH 7.4), and added 10^6 cells/well at equal volume of 500 μL in a Seahorse 24-well plate. The cells were maintained in a non-CO2 incubator and allowed to settle for 30 minutes at 37° C. Next, the plate was centrifuged at 40 g for 10 minutes at room temperature without application of the brake to help cells attach to the bottom of the plate. Drugs used in the assay: 5 μM oligomycin A (Sigma-Aldrich; Cat. 75351), 3 μM Trifluoromethoxy carbonylcyanide phenylhydrazone (FCCP) (Sigma-Aldrich; Cat. C2920), 1 μM Rotenone (Sigma-Aldrich; Cat. […]), 1 μM Antimycin A (Sigma-Aldrich; Cat. […]), 0.5 mM TMPD (Sigma-Aldrich; Cat. T7394) and 10 mM Ascorbate (Sigma-Aldrich; Cat. 95209).
as §1

[3] = system: Complex I; conditions: healthy PBMC, 4-hour IL6 (1 ng/mL) vs vehicle
Description: Complex I in vitro assay. This assay was performed using Abcam Complex I Enzyme Activity Microplate Assay Kit (ab109721), per the manufacturer's protocol. Briefly, following a 4-hour treatment with vehicle or IL6, 5×10^6 PBMCs were washed with PBS and lysed by detergent for 30 minutes on ice, followed by centrifugation at 16,000 g for 20 minutes at 4° C. Supernatant was taken for protein concentration determination. 12.5 μg of total protein in a final volume of 200 μL was incubated in microplates precoated with anti-Complex I antibody for 3 hours at room temperature. Post-washing step, NADH and dye were added, and optical density (OD) was serially measured at 450 nm over 1 hour. The slope of the curve within the linear range was recorded as Complex I activity.

[4] = system: monocytes isolated from healthy subjects; assay: Maximal respiration of isolated monocytes after 4-hour IL6 treatment; format: cell-based; conditions: 4-hour 1 ng/mL recombinant human IL6
Description: as §2, with “Briefly, antibody-conjugated magnetic bead solution was added to isolated PBMCs resuspended in RPMI containing 0.5% BSA and incubated for 20 minutes at 4° C., followed by magnetic column binding and elution. The procedure was repeated once to improve the purity of monocytes. The monocytes were washed once with RPMI prior to subsequent experiments.” left out
Seahorse Mito Stress Test. Oxygen consumption rate (OCR) of freshly isolated PBMCs was assessed using a Seahorse XFe24 analyzer (Agilent Technologies). […]

CC1(C)CC(NC(=O)C[P+](c2ccccc2)(c2ccccc2)c2ccccc2)CC(C)(C)N1[O] [MitoTempo]
cytokine gene expressions [1]: markedly attenuated | maximal OCR ([2]; healthy PBMC, 4-hour MitoDAMP with 0.5 mM MitoTempo vs MitoDAMP alone): did not change

recombinant IL6: human recombinant IL6, purchased from Gibco
Complex I enzymatic activity [3]: reduced | maximal OCR of monocytes [4]: decreased | OCR through Complex IV (TMPD and ascorbate as electron donors) ([2]; healthy PBMC, 4-hour IL6 (1 ng/mL) vs vehicle): no difference | maximal OCR ([2]; healthy PBMCs, 4-hour increasing concentrations of human recombinant IL6): dose-dependent decline | lowest IL6 concentration with significant reduction of maximal OCR ([2]; healthy PBMCs, 4-hour treatment): 0.1 ng/mL

CC(C)(O)c1coc(S(=O)(=O)NC(=O)Nc2c3c(cc4c2CCC4)CCC3)c1 [MCC950]
maximal OCR ([2]; healthy PBMC, 4-hour MitoDAMP with 1 μM MCC950): marginally improved

IL18: human recombinant IL18, purchased from R&D Systems
PBMC maximal OCR ([2]; healthy PBMCs): did not result in a significant decrease

recombinant IL1β: human recombinant IL1β, purchased from R&D Systems
PBMC maximal OCR ([2]; healthy PBMCs): did not result in a significant decrease
